Results from ChEMBL document CHEMBL5537186 (J Med Chem, 2024).
Converted amounts (≈) assume the structure as drawn.

Experiments:
[1] = Metabolic stability in human hepatocytes assessed as compound remaining measured after 60 mins; type: ADME, cell-based, Hepatocyte; settings: read-out: Stability
[2] = Lipophilicity, logD of compound at pH 7.4; type: physicochemical; settings: buffer
[3] = Kinetic aqueous solubility of compound at pH 7.4; type: physicochemical; settings: read-out: Kinetic_solubility

Cc1ccc(NC(=O)N2CC[C@H](C(F)(F)F)C2)cc1-c1cc(OCCO)nc(N2CCOCC2)c1
remaining at 1 h [1]: 6%
logD [2]: 3.51
solubility kinetic [3]: 83 µM (≈ 41 µg/mL)

Cc1ccc(NC(=O)N2CC[C@@H](CC(F)(F)F)C2)cc1-c1cc(O[C@@H](C)CO)nc(N2CCOCC2)c1
remaining at 1 h [1]: 45%
logD [2]: 3.84
solubility kinetic [3]: 56 µM (≈ 29.3 µg/mL)

Cc1ccc(NC(=O)N2CC[C@H](CC(F)(F)F)C2)cc1-c1cc(OCCO)nc(N2CCOCC2)c1
logD [2]: 3.67
solubility kinetic [3]: 43 µM (≈ 21.9 µg/mL)

Cc1ccc(NC(=O)N2CCO[C@H](C(F)(F)F)C2)cc1-c1cc(OCCO)nc(N2CCOCC2)c1
remaining at 1 h [1]: 93%
logD [2]: 3.46
solubility kinetic [3]: 62 µM (≈ 31.7 µg/mL)

Cc1ccc(NC(=O)N2CC[C@@H](C(F)(F)F)C2)cc1-c1cc(OCCO)nc(N2CCOCC2)c1
remaining at 1 h [1]: 7%
logD [2]: 3.49
solubility kinetic [3]: 83 µM (≈ 41 µg/mL)
